What all share (format): cell-based
Assay [1] concerns ERK phosphorylation in AGS cells. In words: Inhibition of ERK phosphorylation in AGS cells (HTRF method). Conditions: Homo sapiens, 1 h incubation, phosphorylated ERK/total ERK ratio. As for the experimental part: In the experiment, the inhibitory effect of the compound on the KRAS target was evaluated by assessing the inhibitory effect of compound 1-p1 on ERK phosphorylation in cells and based on the IC50 value.
AGS cells (Nanjing Cobioer, CBP60476) were cultured in an RPMI1640 (Hyclone, SH30809.01) complete culture medium containing 10% fetal bovine serum. On the first day of the experiment, the AGS cells were seeded into a 96-well plate with a complete culture medium at a density of 40000 cells/well, with each well containing 190 μL of a cell suspension. The plate was incubated overnight in a 5% CO2 cell incubator at 37° C.
The next day, the test compound, serially diluted in a complete culture medium, was added at 10 μL/well. The final concentrations of the compound were 9 concentration points obtained by 5-fold serial dilution from 10 μM. A blank control containing 0.5% DMSO was set. The plate was incubated in a 5% CO2 cell incubator at 37° C. for 1 h. […]
On the third day, the fluorescence values at an excitation wavelength of 337 nm and emission wavelengths of 665 nm and 620 nm were obtained using an ENVISION multi-mode microplate reader (PerkinElmer, ENVISION).
The IC50 value for the inhibitory activity of the compound was calculated using Graphpad Prism software based on the compound concentration and the phosphorylated ERK/total ERK ratio.
Background: Time-resolved FRET reads energy transfer from a long-lived donor to a nearby acceptor.

The subject of another assay is GP2d cells. Briefly: Inhibition of 3D proliferation of GP2d cells. Conditions: 120 h, CellTiter-Glo 3D. As for the experimental part: (§1) The inhibitory effect of compound 1-p1 on the KRAS target was evaluated by assessing the inhibitory effect of compound 1-p1 on the 3D proliferation of GP2d and AGS cells.
GP2d cells (Nanjing Cobioer, CBP60010) were cultured in a complete culture medium, namely a DMEM/high glucose culture medium (Hyclone, SH30243.01) containing 10% fetal bovine serum (Corning, 35-076-CV). On the first day of the experiment, the GP2d cells were seeded into a 96-well low-adsorption plate (Corning, CLS7007-24EA) with a complete culture medium at a density of 1000 cells/well, with each well containing 90 μL of a cell suspension. The plate was centrifuged at 2000 rpm for 5 min at room temperature and then incubated overnight in a 5% CO2 cell incubator at 37° C.
(§2) The next day, the test compound, serially diluted in a complete culture medium, was added at 10 μL/well. The final concentrations of the compound for GP2d cells were 9 concentration points obtained by 3-fold serial dilution from 1 μM, and the final concentrations of the compound for AGS cells were 9 concentration points obtained by 3-fold serial dilution from 10 μM. A blank control containing 0.5% DMSO was set for both types of cells. […] The luminescence signal values were obtained using a multi-mode microplate reader (PerkinElmer, ENVISION).
(§3) The IC50 values for the inhibitory activity of the compound were calculated using Graphpad Prism software.

The next assay deals with AGS cells. Briefly: Inhibition of 3D proliferation of AGS cells. Conditions: Homo sapiens, 120 h, CellTiter-Glo 3D. As to the method:
as §1
AGS cells (Nanjing Cobioer, CBP60476) were cultured in a complete culture medium, namely an RPMI1640 culture medium (Hyclone, SH30809.01) containing 10% fetal bovine serum (Corning, 35-076-CV). On the first day of the experiment, the AGS cells were seeded into a 96-well low-adsorption plate (Corning, CLS7007-24EA) with a complete culture medium at a density of 1000 cells/well, with each well containing 90 μL of a cell suspension. The plate was centrifuged at 2000 rpm for 5 min at room temperature and then incubated overnight in a 5% CO2 cell incubator at 37° C.
as §2, §3
(Cellular ATP, detected with luciferase, serves as a proxy for viable cell number.)

A word on the pIC50: it is −log10 of the IC50, conventionally taken in molar units.

pIC50: −log10 of the molar value.

On to `CCc1c(F)ccc2cc(O)cc(-c3nc4c5c(nc(OC[C@@]67CCCN6C[C@H](F)C7)nc5c3F)N3C[C@H]5CC[C@H](N5)[C@H]3CO4)c12` [Compound 1-p1, 5-Ethyl-6-fluoro-4-((5aS,6S,9R)-1-fluoro-12-(((2R,7aS)-2-fluorotetrahydro-1H-pyrrolizin-7a(5H)-yl)methoxy)-5a,6,7,8,9,10-hexahydro-5H-4-oxa-3,10a,11,13,14-pentaaza-6,9-methanonaphtho[1,8-ab]heptalen-2-yl)naphthalen-2-ol], for which the figures for the pIC50 (in assay [1]; in the assay with GP2d cells; in the assay with AGS cells) were 9.40, 9.05 and 8.24, respectively.

The record behind these values is US20260209250A1, “CRYSTAL FORM OF KRAS G12D INHIBITOR AND PREPARATION METHOD THEREFOR” (priority 2022, published 2026).
